Laboratory results: patent US20090111828A1, “L-ALANINE DERIVATIVES” (ASTRAZENECA AB, priority 2005, published 2009)

Experiments:
[1] = target: T1, α5β1 integrin (Homo sapiens, UniProt P05556+P08648); experiment: In vitro cell adhesion assay: α5β1 integrin mediated adhesion of K562 cells to fibronectin fragment Fn9-10; type: cell-based; design: α5β1 integrin mediated adhesion of K562 cells; host or cells: K562 human erythroleukaemia cells; conditions: K562 cells on Fn9-10 coated plates; 0.2 mM MnCl; read-out: b) Cell Adhesion Assay
T1 sequence (P08648 42-894 limits assumed): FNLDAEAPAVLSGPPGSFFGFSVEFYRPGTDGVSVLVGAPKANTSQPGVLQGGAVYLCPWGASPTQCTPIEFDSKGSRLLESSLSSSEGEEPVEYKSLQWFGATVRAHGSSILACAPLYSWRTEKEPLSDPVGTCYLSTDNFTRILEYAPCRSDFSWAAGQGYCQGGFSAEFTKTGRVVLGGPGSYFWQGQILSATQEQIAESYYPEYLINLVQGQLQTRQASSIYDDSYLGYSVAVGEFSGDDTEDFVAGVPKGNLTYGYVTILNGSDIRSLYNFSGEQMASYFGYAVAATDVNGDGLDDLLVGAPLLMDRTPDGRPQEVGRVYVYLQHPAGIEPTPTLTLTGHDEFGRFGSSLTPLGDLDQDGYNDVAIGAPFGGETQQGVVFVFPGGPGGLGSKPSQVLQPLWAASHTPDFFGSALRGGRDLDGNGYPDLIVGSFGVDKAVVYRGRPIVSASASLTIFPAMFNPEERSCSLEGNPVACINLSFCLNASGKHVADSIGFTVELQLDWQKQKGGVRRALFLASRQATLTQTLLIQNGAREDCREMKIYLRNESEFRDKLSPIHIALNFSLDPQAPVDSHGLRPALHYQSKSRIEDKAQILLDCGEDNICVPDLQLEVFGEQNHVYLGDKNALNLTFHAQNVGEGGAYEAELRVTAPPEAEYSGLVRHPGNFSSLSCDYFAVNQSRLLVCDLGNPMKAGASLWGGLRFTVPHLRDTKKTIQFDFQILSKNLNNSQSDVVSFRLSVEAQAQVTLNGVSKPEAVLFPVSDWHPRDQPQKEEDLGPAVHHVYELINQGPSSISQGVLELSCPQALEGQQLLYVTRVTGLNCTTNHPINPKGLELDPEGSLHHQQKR
T1 sequence (P08648 895-1049 partner limits assumed): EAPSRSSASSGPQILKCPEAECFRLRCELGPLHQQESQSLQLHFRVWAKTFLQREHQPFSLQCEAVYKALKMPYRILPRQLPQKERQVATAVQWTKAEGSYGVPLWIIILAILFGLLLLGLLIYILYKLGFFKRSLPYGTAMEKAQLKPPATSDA
T1 sequence (P05556 21-798): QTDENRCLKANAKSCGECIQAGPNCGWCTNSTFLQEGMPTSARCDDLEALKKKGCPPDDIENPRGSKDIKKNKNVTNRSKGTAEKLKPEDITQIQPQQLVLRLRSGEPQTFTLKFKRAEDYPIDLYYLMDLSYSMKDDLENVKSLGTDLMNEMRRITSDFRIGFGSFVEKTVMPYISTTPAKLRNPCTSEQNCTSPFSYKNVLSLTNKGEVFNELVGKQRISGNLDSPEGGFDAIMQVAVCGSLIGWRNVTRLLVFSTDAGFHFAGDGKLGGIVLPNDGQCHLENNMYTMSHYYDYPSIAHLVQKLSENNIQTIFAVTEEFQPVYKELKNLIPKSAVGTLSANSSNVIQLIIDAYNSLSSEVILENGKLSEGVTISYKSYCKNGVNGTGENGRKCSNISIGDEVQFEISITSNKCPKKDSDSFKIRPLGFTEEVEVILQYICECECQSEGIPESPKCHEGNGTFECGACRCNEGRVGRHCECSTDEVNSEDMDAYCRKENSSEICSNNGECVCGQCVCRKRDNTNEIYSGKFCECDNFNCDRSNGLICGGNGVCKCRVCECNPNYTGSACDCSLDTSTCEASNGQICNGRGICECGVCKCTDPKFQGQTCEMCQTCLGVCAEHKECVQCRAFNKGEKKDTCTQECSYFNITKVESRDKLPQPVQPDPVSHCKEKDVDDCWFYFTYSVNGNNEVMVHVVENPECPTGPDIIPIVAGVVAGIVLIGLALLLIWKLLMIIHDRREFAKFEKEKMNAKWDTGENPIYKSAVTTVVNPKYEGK
Description: The assay determined the ability of compounds to inhibit the α5β1 integrin mediated adhesion of K562 cells to the ligand, a fragment of human fibronectin. The human K562 erythroleukaemia cell line (LGC Promochem, Teddington, Middlesex, UK, Catalogue No. CCL-243) was routinely maintained in RPMI 1640 medium (Sigma-Aldrich Company Ltd, Gillingham, Dorset SP8 4XT, Catalogue No. R0883) containing 10% heat-inactivated foetal calf serum (PAA lab GmbH, Pasching, Austria Catalogue No. PAA-A15-043) and 1% glutamax-1 (Invitrogen Ltd. Paisley, UK Catalogue No. 35050-038) at 37° C. with 5% CO2 at densities between 1×10^5 and 1×10^6 cells/ml.
A DNA fragment encoding the domains 9-10 (amino-acids 1325-1509) of human fibronectin (Swiss-Prot Acession No. P02751) was isolated from cDNA libraries using standard molecular biology and PCR cloning techniques. The cDNA fragment was sub-cloned into a pT7#3.3 expression vector containing a GST-epitope tag (developed at AstraZeneca; Bagnall et al., Protein Expression and Purification, 2003, 27: 1-11) and the fragment termed Fn9-10. Following expression in E. coli, the expressed protein was purified using the GST-tag using standard purification techniques.
For adhesion assay, a 96-well flat bottomed plate (Greiner Bio one ltd., Gloucester GL10 3SX Catalogue No. 655101) was coated overnight at 4° C. with 100 μl of 20 μg/ml Fn9-10 ligand in Dulbecco's PBS (Gibco#14190-94). The plate was then washed twice with 200 μl of PBS and blocked with 100 μl of 3% BSA (SigmaA7888) in PBS for 1 hour at 37° C. The plates were then washed again 3 times with 200 μl of PBS and left empty.
Test compounds were prepared as 10 mM stock solutions in DMSO (Sigma-Aldrich Company Ltd, Gillingham, Dorset SP8 4XT Catalogue No. 154938) and serially diluted with HBSS (Hanks Buffered Salt solution (Gibco Catalogue No. 14170-088)/2% DMSO to give a range of test concentrations at twice required final concentration. Aliquots (50 μl) of each compound dilution were placed into each well of the Fn9-10 coated plates. Each plate also contained control wells: maximum adhesion signal was created using wells containing 50 μl HBSS/2% DMSO and minimum signal corresponding to no adhesion was created using wells containing 50 μl HBSS/2% DMSO/20 mM EDTA (Sigma Catalogue No. E7889).
The K562 cells were cultured to ˜1×10^6 cells/ml and each culture suspension pooled. Cells were centrifuged at 1200 rpm for 2 mins and the pellets washed with HBSS followed by HBSS/50 mM HEPES (Sigma Catalogue No. H0887). Cell pellets were pooled and resuspended in HBSS/0.4 mM manganese chloride/50 mM HEPES (MnCl; Sigma Catalogue No. M1787) to give a final concentration of 4×10^6 cells/ml.
The assay was initiated by the addition of 50 μl of cell suspension into each coated well (200,000 cells/well), thus resulting in final desired compound concentration and a final MnCl concentration of 0.2 mM. The plates were incubated for 45 minutes at 37° C. 5% CO2. After this time, the solution was flicked off as waste and the remaining cell layer carefully washed twice with 200 μl of PBS and then fixed with 200 μl of 100% ethanol for 30 minutes.
After fixation, the ethanol was flicked off to waste and 100 μl of 0.1% Crystal violet stain was added to each well and incubated at ambient temperature for 15 minutes. Excess stain was removed by rinsing ˜3 times under cold slow running water. The plates were blotted over tissue then solubilised by adding 50 μl of 1% Triton X100 (Sigma Catalogue No. T9284) and shaking at 500 rpm for 30 mins on plate shaker. Finally, 100 μl of deionised water was added to each well and the absorbance was determined at 590 nm on a spectrophotometer. The minimum value was subtracted from all values and the absorbance signal was plotted against compound concentration to generate IC50 data.

[2] = target: T1, α5β1 integrin; experiment: In vitro binding assay: inhibition of binding of α5β1 integrin to fibronectin fragment Fn9-10 (Origen electrochemiluminescence); conditions: human a5b1 purified from placenta; biotinylated Fn9-10 ligand
Protocol: The assay determined the ability of compounds to inhibit binding of a5 μl integrin to a cognate ligand, a fragment of human fibronectin. The assay used Origen technology (IGEN International) to measure the compound activity. Briefly, (α5β1 integrin was coated onto epoxy-paramagnetic beads (Dynal Biotech UK, Bromborough, Wirral, CH62 3QL, UK, Catalogue No 143.02) and biotinylated-fibronectin ligand was coupled to strepatividin labelled BV-Tag-NHS-Ester (BioVeris Corporation, Witney, Oxfordshire, OX28 4GE, UK, Catalogue No JSF396). The ruthenium-labelled BV-Tag emits a electrochemiluminescence signal upon stimulation which is detected by the Origen reader. Thus, interaction of integrin and ligand causes association of bead and tag and the resulting electrochemiluminescence signal reflects the level of integrin interaction with fibronectin.
12 μg of human a5 μl purified from placenta (Chemicon, Chandlers Ford, Hampshire, SO53 4NF, UK, Catalogue No CC1055-K) was coated onto surface-activated 3 mg of epoxy-paramagnetic beads in PBS and 1M ammonium sulfate following manufacturers instructions at 4° C. for 24 hours. Coated beads were then washed into Assay Buffer (25 mM Hepes, 150 mM NaCl, 1 mM MgCl, 1 mM MnCl, 0.1% Tween, pH7.4) to give a final concentration of 20 μg of α5β1/ml. Immediately prior to the assay, the beads were further diluted ×40 fold in Assay Buffer to give a concentration of 0.5 μg α5β1/ml.
A DNA fragment encoding the domains 9-10 (amino-acids 1325-1509) of human fibronectin (Swiss-Prot Acession No. P02751) was isolated from cDNA libraries using standard molecular biology and PCR cloning techniques. The cDNA fragment was sub-cloned into a pT73.3 expression vector containing a GST-epitope tag (developed at AstraZeneca; Bagnall et al., Protein Expression and Purification, 2003, 27: 1-11). Following expression in E. coli, the expressed protein, termed Fn9-10, was purified using the GST-tag using standard purification techniques. The recombinant Fn9-10 was subsequently biotinylated using a EZ-link Sulfo-NHS-LC-Biotinylation kit (Perbio Science UK Ltd., Cramlington, Northumberland, NE23 1WA, UK, Catalogue No. 21335) and made to give a final concentration of approximately 1 mg/ml. BV-Tag-NHS-Ester was labelled with streptavidin by incubation at room temperature following manufacturers instructions and buffer-exchanged into PBS to give a concentration of 0.5 mg/ml. […]
For the assay, […] of a5b1-bead suspension and 40 μl of the Fn9-10/BV-Tag preincubated solution were added to each well containing 20 μl of compound or control solution. Assay plates were then incubated at room temperature for a minimum of 6 hours before being analysed on the Origen plate reader. […]

Structure (SMILES)	IC50 [1] [µM]	IC50 [2] [µM]
CS(=O)(=O)N1CC=C(c2ccc(C[C@H](NC(=O)c3c(Cl)cccc3Cl)C(=O)O)nc2)CC1	70.5	24.7
O=C(N[C@@H](Cc1ccc(C2=CCN(C(=O)c3cccc(F)c3)CC2)cn1)C(=O)O)c1c(Cl)cccc1Cl	48	7.2
CCCS(=O)(=O)N1CC=C(c2ccc(C[C@H](NC(=O)c3c(Cl)cccc3Cl)C(=O)O)nc2)CC1	7	13.9
O=C(N[C@@H](Cc1ccc(C2=CCN(Cc3ccc(F)cc3)CC2)cn1)C(=O)O)c1c(Cl)cccc1Cl	13.2	6
CC(=O)NCC(=O)N1CC=C(c2ccc(C[C@H](NC(=O)c3c(Cl)cccc3Cl)C(=O)O)nc2)CC1 [3-[1′-(N-acetylglycyl)-1′,2′,3′,6′-tetrahydro-3,4′-bipyridin-6-yl]-N-(2,6-dichlorobenzoyl)-L-alanine]	≥ 100	
O=C(N[C@@H](Cc1ccc(N2CCN(S(=O)(=O)c3ccccc3)CC2)cn1)C(=O)O)c1c(Cl)cccc1Cl [N-(2,6-dichlorobenzoyl)-3-{5-[4-(phenylsulfonyl)piperazin-1-yl]pyridin-2-yl}-L-alanine]	≥ 100	
